Measured values as given in patent publication US20240336659A1, “CELL-PENETRATING PEPTIDE, ANTI-CANCER PEPTIDE, AND PHARMACEUTICAL COMPOSITION FOR PREVENTING OR TREATING CANCER, COMPRISING SAME” (ONECUREGEN CO., LTD., priority 2021, published 2024).
Positions of bridges follow the written chain, without caps; N, C: chain ends. No end group written: not given here.

What was measured:
[1] = system: stomach cancer cell lines NUGC3; test: Mouse xenograft experiment (tumor formation); format: in vivo, Balb-c/nude mouse; details: intraperitoneally 10 mg/kg once a day
Procedure: A mouse xenograft experiment was performed to analyze a tumor formation inhibitory effect of cancer therapeutic peptide fragments. Specifically, 5×10^6 stomach cancer cell lines NUGC3 were transplanted by subcutaneous injection into a flank site of a 6-week-old female Balb-c/nude mouse, and after one week (average tumor size 100 mm^3), Vehicle (0.9% saline), OCP5 (SEQ ID NO: 12), OCP5-VGLL1S84-15C (SEQ ID NO: 29), or OCP5-VGLL1S84-7C (SEQ ID NO: 33) was each administered intraperitoneally at 10 mg/kg once a day. Tumor size was measured with a digital caliper at 2-day intervals from the start of drug administration, and the tumor size (tumor size (mm^3)=long axis x short axis2) was calculated. The experiment was terminated when the average tumor size of the OCP5-administered group was 1,000 mm3, and then the tumor was extracted, and the tumor weight was measured.

[2] = system: MMP9; test: MMP9 Western blot of extracted xenograft tumor tissue; format: in vivo; details: extracted NUGC3 xenograft tumor, 10 mg/kg once a day
Procedure: After completion of the in vivo xenograft experiment in Example 6-1, changes in the protein expression level of MMP9 were measured in the extracted tumor tissue using immunohistochemical staining and Western blot methods. In addition, the amount of MMP9 protein in the tumor tissue was analyzed by Western blot experiment. The protein amount in the sample was quantified using a BCA assay method, and 20 μg of each sample was loaded, electrophoresed on SDS-PAGE, and then transferred to a nitrocellulose membrane. The membrane was blocked in a 5% skim milk solution for 1 hour, and then placed in MMP9 (1:1000, Abcam #ab76003) or ACTB (1:10,000, SantaCruz #sc-47778) antibody solution and reacted overnight at 4° C. The next day, the primary antibody was removed, the membrane was washed with a TBST buffer, and a HRP-conjugated anti-mouse or anti-rabbit secondary antibody was diluted at 1:10,000 in the 5% skim milk solution, and then reacted with the membrane at room temperature for 1 hour. The blot reacted with a SuperSignalTM West Pico Chemiluminescent substrate (ThermoFisher #34580) and analyzed on the ChemiDoc XRS+ System (Bio-Rad Laboratories, #1708265).

[3] = system: MMP9; test: MMP9 immunohistochemical staining of extracted xenograft tumor tissue; format: in vivo; details: extracted NUGC3 xenograft tumor, 10 mg/kg once a day
Procedure: After completion of the in vivo xenograft experiment in Example 6-1, changes in the protein expression level of MMP9 were measured in the extracted tumor tissue using immunohistochemical staining and Western blot methods. The immunohistochemical staining was performed by the following method. The extracted tumor tissue was immobilized with 4% paraformaldehyde and embedded in paraffin, and then the tissue was sectioned at 4 μm thickness and attached to a glass slide. The tissue was hydrated with a xylene-ethanol reaction, and then reacted with an MMP9 antibody (1:100) at 4° C. overnight. The next day, the tissue sections were washed with PBS and reacted with a secondary antibody HRP-conjugated anti-rabbit antibody (1:100) at room temperature for 1 hour, and then the antibody was washed with PBS, and the reacted MMP9 was searched through the reaction by a DAB substrate kit (Vecotr Laboratories, #SK-4100). After DAB washing, nuclear staining was performed with a hematoxylin solution, and the tissue was emulsified through an ethanol-xylene reaction and then mounted. Tissue photographs were obtained using a Nikon TS2 microscope.

[4] = system: stomach cancer cell line NUGC3; test: Cell growth inhibition (sulforhodamine B staining); format: cell-based; details: for cancer cell growth inhibitory effect: NUGC3, 10 μM screening of Table 4 peptides; for cancer cell growth inhibitory efficacy: NUGC3, treated for each concentration
Procedure: (§1) Specifically, in order to confirm cell growth ability, a stomach cancer cell line NUGC3 and a breast cancer cell line SK-BR-3 were each subcultured in a 96-well plate, and the next day, peptide fragments Con, 7, and CC of Table 2 were treated with 100 μM each to the cell lines. After 72 hours, the cells were immobilized with a 10% trichloroacetic acid solution, and then stained the cell with a 0.4% sulforhodamine B solution for 1 hour, washed with acetic acid, and dried. Thereafter, the dried cells were dissolved in a 10 mM Tris solution and absorbance was measured at 510 nm using an ELISA plate reader.
In order to compare the cancer cell growth inhibitory effects of cancer therapeutic peptides according to cell-penetrating peptides, the stomach cancer cell line NUGC3 was treated with 10 μM each of cancer therapeutic peptide fragments in Table 4, and the cancer cell growth inhibitory effects were screened in the same manner as in Example 1.
Specifically, in order to confirm the cancer cell inhibition enhancing effect by enhancing the cell permeability of OCP5 among the novel synthesized CPPs, a cancer therapeutic peptide fragment represented by SEQ ID NO: 6 including the existing TAT and a cancer therapeutic peptide fragment represented by SEQ ID NO: 31 including the novel synthesized OCP5 were used. The stomach cancer cell lines NUGC3 and AGS, the breast cancer cell line SK-BR-3, and the pancreatic cancer cell line Capan-1 were treated with 25 μM SEQ ID NO: 6 and 100 μM SEQ ID NO: 31 for 72 hours, respectively, and the cancer cell growth inhibitory effects were compared in the same manner as in Example 1. […] Through this, it was confirmed that the novel CPP may be applied more effectively than the existing TAT to inhibit the cancer cell growth by the anticancer peptides.
(§2) To analyze the cancer cell growth inhibitory effect according to a length of the anticancer peptide fragment, OCP9-VGLLIS84-7 (SEQ ID NO: 43), OCP9-VGLLIS84-9CC (SEQ ID NO: 46), and OCP9-VGLLIS84-15 (SEQ ID NO: 49) were treated for each concentration to analyze the growth inhibitory effects of stomach cancer cell lines NUGC3 and NCI-N87. When stomach cancer cells were treated with cancer therapeutic peptides, the cancer cell growth inhibitory efficacy was shown in a concentration-dependent manner. In addition, it was confirmed that the growth inhibitory effect on the stomach cancer cell lines increased as the length of the anticancer peptide fragment increased (FIG. 7).
Specifically, the cancer cell growth inhibitory effect according to partial or entire cyclization of the anticancer peptide fragment was analyzed. The stomach cancer cell line NUGC3 was treated with a CPP fragment OCP9 (SEQ ID NO: 16), a partially cyclized sequence […] (SEQ ID NO: 33), or a sequence OCP9-VGLLIS84-7CC (SEQ ID NO: 40) including an entirely cyclized anticancer peptide at different concentrations of 1, 2.5, 5, 10, and 20 μM, respectively, and the cancer cell growth inhibitory effects were compared in the same manner as in Example 1.

[5] = system: stomach cancer cell line AGS; test: Cell growth inhibition (sulforhodamine B staining); format: cell-based; details: 10 μM
Procedure: as §1
(§3) Specifically, in order to confirm the cancer cell inhibition enhancing effect by enhancing the cell permeability of OCP5 among the novel synthesized CPPs, a cancer therapeutic peptide fragment represented by SEQ ID NO: 6 including the existing TAT and a cancer therapeutic peptide fragment represented by SEQ ID NO: 31 including the novel synthesized OCP5 were used. The stomach cancer cell lines NUGC3 and AGS, the breast cancer cell line SK-BR-3, and the pancreatic cancer cell line Capan-1 were treated with 25 μM SEQ ID NO: 6 and 100 μM SEQ ID NO: 31 for 72 hours, respectively, and the cancer cell growth inhibitory effects were compared in the same manner as in Example 1. […]

[6] = system: lung cancer cell line H460; test: Cell growth inhibition (sulforhodamine B staining); format: cell-based; details: H460, 10 μM
Procedure: as §1
(§4) It was investigated whether the cancer therapeutic peptide synthesized in this study could be used to treat various cancers other than stomach cancer. For this purpose, the cancer therapeutic peptides OCP and OCP5-VGLLIS84-7C were treated in stomach cancer cell lines […] and AGS, lung cancer cell lines H460 and A549, pancreatic cancer cell lines AsPC-1 and MIAPaca-1, and breast cancer cell lines MCF7 and MDA-MB-231 at concentrations of 10 μM. Thereafter, as a result of analysis in the same manner as in Example 1, the growth inhibitory efficacy of OCP5-VGLLIS84-7C cancer cells was confirmed compared to the control OCP5 (FIG. 14).

[7] = system: stomach cancer cell line NUGC2; test: Cell growth inhibition (sulforhodamine B staining); format: cell-based; details: NUGC2, 10 μM
Procedure: as §1, §4

[8] = system: lung cancer cell line A549; test: Cell growth inhibition (sulforhodamine B staining); format: cell-based; details: A549, 10 μM
Procedure: as §1, §4

[9] = system: breast cancer cell line MDA-MB-231; test: Cell growth inhibition (sulforhodamine B staining); format: cell-based; details: MDA-MB-231, 10 μM
Procedure: as §1, §4

[10] = system: pancreatic cancer cell line AsPC-1; test: Cell growth inhibition (sulforhodamine B staining); format: cell-based; details: AsPC-1, 10 μM
Procedure: as §1, §4

[11] = system: pancreatic cancer cell line MIAPaca-1; test: Cell growth inhibition (sulforhodamine B staining); format: cell-based; details: MIAPaca-1, 10 μM
Procedure: as §1, §4

[12] = system: breast cancer cell line MCF7; test: Cell growth inhibition (sulforhodamine B staining); format: cell-based; details: MCF7, 10 μM
Procedure: as §1, §4

[13] = system: stomach cancer cell lines NUGC3; test: Wound healing assay (cancer cell migration); format: cell-based; details: 10 μM
Procedure: In order to analyze the possibility of metastasis inhibitory efficacy of stomach cancer cells by anticancer therapeutic peptides, a wound healing assay was performed to evaluate a migration inhibitory effect of stomach cancer cells. Specifically, 5×10^4 stomach cancer cell lines NUGC3 were subcultured in a 24-well plate, and then the next day, scratches were made at the center of the cells, and 10 μM OCP5-VGLL1S84-7C (SEQ ID NO: 33) was mixed into the cell culture medium and administered. Real-time cell images were acquired through Cytation5 (Biotek), and the degree of cancer cell migration was analyzed by calculating the average area (wound width, B) of the scratch area and the degree (% Confluence, C) to which cells were filled.

[14] = system: cell line NUGC3; test: Cell permeability of FITC-conjugated peptides by FACS; format: cell-based; details: NUGC3, 1.5 or 2.5 μM FITC-conjugated peptide, 3 hours; compared to TAT
Procedure: To quantitatively measure the cell permeability of the novel synthesized cell-penetrating peptides, 1.5 or 2.5 μM FITC-conjugated peptides were administered to the cell line NUGC3 or the normal cell line WI38, and after 3 hours, the amounts of FITC present in the cells were measured by FACS.

[15] = system: stomach cancer cell line NCI-N87; test: Cell growth inhibition (sulforhodamine B staining); format: cell-based; details: NCI-N87, treated for each concentration
Procedure: as §1, §2

[16] = system: breast cancer cell line SK-BR-3; test: Cell growth inhibition (sulforhodamine B staining); format: cell-based; details: SK-BR-3, 100 μM, 72 hours; compared with linear anticancer peptide (SEQ ID NO: 5)
Procedure: as §1, §3

Q: Which “tumor formation inhibitory effect compared to the vehicle group” value [1] does the source give for “SIIFRIFLHLQK-CPNQWRYSSPWTKPQPC-RRR (SIIFRIFLHLQKCPNQWRYSSPWTKPQPCRRR; disulfide 13-29) [OCP5-VGLL1S84-15C]” here?
A: The value was 63%.

Q: And the “amount of MMP9 in tumor tissues (Western blot)” value [2]?
A: Its value is “reduced”.

Q: What about the “amount of MMP9 protein in the tumor (immunohistochemical staining)” value [3] of the same substance?
A: The value was “significantly reduced”.

Q: What does the source list for “SIIFRIFLHLQK-CYSSPWTKC-RRR (SIIFRIFLHLQKCYSSPWTKCRRR; disulfide 13-21) [OCP5-VGLL1S84-7C]”?
A: cancer cell growth inhibitory effect [4]: significant cancer cell growth inhibitory effect; tumor formation inhibitory effect compared to the vehicle group [1]: 45%; growth inhibitory efficacy compared to the control OCP5 [5]: confirmed; growth inhibitory efficacy compared to the control OCP5 [6]: confirmed; growth inhibitory efficacy compared to the control OCP5 [7]: confirmed; growth inhibitory efficacy compared to the control OCP5 [8]: confirmed; growth inhibitory efficacy compared to the control OCP5 [9]: confirmed; growth inhibitory efficacy compared to the control OCP5 [10]: confirmed; growth inhibitory efficacy compared to the control OCP5 [11]: confirmed; growth inhibitory efficacy compared to the control OCP5 [12]: confirmed; amount of MMP9 in tumor tissues (Western blot) [2]: reduced; migration of cancer cells (wound width, % Confluence) [13]: inhibited; amount of MMP9 protein in the tumor (immunohistochemical staining) [3]: significantly reduced

Q: How did the “cell permeability (as concluded from the growth inhibition screening)” value ([4]; NUGC3, 10 μM screening) turn out when SIIFRIFLHLQKRRR (OCP5) was run?
A: The value was “increased”.

Q: And the “cancer cell growth inhibitory effect” value [4]?
A: Its value is “increased”.

Q: What about the “effect on tumor formation compared to the vehicle group” value [1] of the same substance?
A: The value was “did not affect the tumor formation”.

Q: What about the “intracellular permeability (amount of FITC in the cells)” value [14] of the same substance?
A: Its value is “significantly increased”.

Q: How did the “cancer cell growth inhibitory efficacy” value [4] turn out when “SIIFRIFRRRRR-PNQWRYSSPWTKPQP (SIIFRIFRRRRRPNQWRYSSPWTKPQP; OCP9-VGLL1S84-15) [OCP9-VGLLIS84-15]” was run?
A: The value was “concentration-dependent”.

Q: And the “cancer cell growth inhibitory efficacy” value [15]?
A: The value was “concentration-dependent”.

Q: What does the source list for “SIIFRIFRRRRR-YSSPWTK (SIIFRIFRRRRRYSSPWTK; OCP9-VGLL1S84-7) [OCP9-VGLLIS84-7]”?
A: cancer cell growth inhibitory efficacy [4]: concentration-dependent; cancer cell growth inhibitory efficacy [15]: concentration-dependent

Q: With “YGRKKRRQRRR-CYSSPWTKC (YGRKKRRQRRRCYSSPWTKC; disulfide 12-20) [SEQ ID NO: 6, TAT-cyclic anticancer peptide]” as the substance, how does the “cell growth inhibitory effect” value ([4]; NUGC3, 100 μM, 72 hours, compared with linear anticancer peptide (SEQ ID NO: 5)) read?
A: Its value is “significantly superior”.

Q: And the “cell growth inhibitory effect” value [16]?
A: The value was “significantly superior”.
